Experimental data: the supplement of paper PMC11208160

Assay: recombinant UMI read abundance after kanamycin selection (control-corrected) (log10(CPM+1)); higher = more efficient recombination; extreme values may be limits of the assay; sequences stand for … in AGTGCAGAGAAAATCGGCCAGTTTTCTCTGCCTGCAGTCCGCATGCCGTGGGACCCCTTGGGTTCTAACCTGTTGCCTAGATTTATGCAGCGGACTGCCTTTCTCCCAAAGTGATAAACCGG…AGGTTGGTTTCACT; site = the 11-nt donor
Summary of the method: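 In Escherichia coli, a pool of donor and donor-binding-loop pairs, each with a 12-nt UMI, was tested for the IS621 bridge recombinase. Plating was on IPTG (0.07 mM) plus kanamycin, or without selection, in two replicates. Recombinant UMIs were amplified by PCR across the donor–target junction and sequenced, and counts were reported as log10(CPM+1) after averaging and control-derived scaling.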
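Note: IS621 bridge recombinase in Escherichia coli cells against a fixed T5 target plasmid.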

Sequence	recombinant UMI read abundance (log10)
GTTCGAGCATGGACCGGTTTTCCCGGTAATCCGTATTTGCA (site GGTCGAGCTTG)	0.00484
GATGATCCATGGACCGGTTTTCCCGGTAATCCGTATTTGCT (site GATAATCCTAG)	0
ACACGAACATGGACCGGTTTTCCCGGTAATCCGTATTTGTC (site ACACGAGCTGA)	0
TAGTCGACATGGACCGGTTTTCCCGGTAATCCGTATTTGGG (site AAGTCGACTCC)	0.0151
GATGATCCATGGACCGGTTTTCCCGGTAATCCGTATTTGCT (site GATGATCCTAG)	0
TGTTCCCCATGGACCGGTTTTCCCGGTAATCCGTATTTGTT (site TGTTCCCCTCA)	0.0148
AGGACTACATGGACCGGTTTTCCCGGTAATCCGTATTTGAC (site AGGACTACTAT)	0.00291
GGAGGTTCATGGACCGGTTTTCCCGGTAATCCGTATTTGAA (site GGAGGTTCTTT)	1.66
AACTAGACATGGACCGGTTTTCCCGGTAATCCGTATTTGGG (site ACCTAGACTCC)	0.0296
GCTTGCCCATGGACCGGTTTTCCCGGTAATCCGTATTTGAT (site GCATGCCCTAT)	0.0036
GAATGCCCATGGACCGGTTTTCCCGGTAATCCGTATTTGCA (site GAATGGCCTTG)	0
AGCCTAGCATGGACCGGTTTTCCCGGTAATCCGTATTTGTT (site AGCCTCGCTAA)	0.0288
TCCACCCCATGGACCGGTTTTCCCGGTAATCCGTATTTGCG (site TCCACCACTCG)	0.00655
ACTCGGTCATGGACCGGTTTTCCCGGTAATCCGTATTTGTT (site ACTCGGTCTAA)	0.936
CAAGATTCATGGACCGGTTTTCCCGGTAATCCGTATTTGTT (site CAAGATTCTAA)	3.22
GTCAGAACATGGACCGGTTTTCCCGGTAATCCGTATTTGGC (site GTGAGAACTGC)	0
CAATCATCATGGACCGGTTTTCCCGGTAATCCGTATTTGCC (site CAATCATCTGG)	0.733
GGCGCAGCATGGACCGGTTTTCCCGGTAATCCGTATTTGTT (site GGCGCAGCTAA)	0.794
CAAGCGGCATGGACCGGTTTTCCCGGTAATCCGTATTTGTG (site CAAGCGCCTCA)	0.00533
CCGGAACCATGGACCGGTTTTCCCGGTAATCCGTATTTGAT (site CAGGAACCTAT)	0
TGGCAGGCATGGACCGGTTTTCCCGGTAATCCGTATTTGGC (site TGGCCGGCTGC)	0
CCTAATTCATGGACCGGTTTTCCCGGTAATCCGTATTTGGC (site CCTAATTCTGC)	0
AGGTGCCCATGGACCGGTTTTCCCGGTAATCCGTATTTGTG (site AGGTACCCTCA)	0.015
TGTTCTCCATGGACCGGTTTTCCCGGTAATCCGTATTTGTA (site TGTTCGCCTTA)	0.0191
GGATGCACATGGACCGGTTTTCCCGGTAATCCGTATTTGTA (site GCATGCACTTA)	0.0182

Sequence	recombinant UMI read abundance (log10)
TACTCCTCATGGACCGGTTTTCCCGGTAATCCGTATTTGCC (site GACTCCTCTGG)	0.715
CTCCTACCATGGACCGGTTTTCCCGGTAATCCGTATTTGCT (site CTACTACCTAG)	0
ACAGTATCATGGACCGGTTTTCCCGGTAATCCGTATTTGCA (site ACAATAACTTG)	0
ACAGTATCATGGACCGGTTTTCCCGGTAATCCGTATTTGCA (site ATACTATCTTG)	1.12
GTGCATCCATGGACCGGTTTTCCCGGTAATCCGTATTTGCC (site GTGCATCCTGG)	0.749
TGTAACGCATGGACCGGTTTTCCCGGTAATCCGTATTTGTG (site TGTAACGCTCA)	0.0113
TTAATTCCATGGACCGGTTTTCCCGGTAATCCGTATTTGTG (site TTAATTCCTCA)	0.4
GTGCTCACATGGACCGGTTTTCCCGGTAATCCGTATTTGAT (site GGGCTCACTAT)	0.0156
TAGCGAGCATGGACCGGTTTTCCCGGTAATCCGTATTTGAA (site TAGCAAGCTTT)	1.3
TAAAGTCCATGGACCGGTTTTCCCGGTAATCCGTATTTGAA (site TAAAGTCCTTC)	0.144
CCCTTCTCATGGACCGGTTTTCCCGGTAATCCGTATTTGGG (site ACCTTCTCTCC)	0.00611
CTGCTAGCATGGACCGGTTTTCCCGGTAATCCGTATTTGCT (site CTGCTAGCTAG)	0
GGCCACCCATGGACCGGTTTTCCCGGTAATCCGTATTTGAT (site GGCCACCCTAT)	0
AAAGGGACATGGACCGGTTTTCCCGGTAATCCGTATTTGAG (site AAAGGGACTCT)	1.76
CCCTTCTCATGGACCGGTTTTCCCGGTAATCCGTATTTGGG (site CCCTTCTCTCA)	0.0118
CCAGTACCATGGACCGGTTTTCCCGGTAATCCGTATTTGCA (site ACAGTATCTTG)	0
CAATTTCCATGGACCGGTTTTCCCGGTAATCCGTATTTGCT (site CAATTTCCTAG)	1.08
CTTCTATCATGGACCGGTTTTCCCGGTAATCCGTATTTGTA (site CTTCTCTCTTA)	0.0109
AATGAAACATGGACCGGTTTTCCCGGTAATCCGTATTTGCT (site AATGAAACTAG)	1.94
GATTGGACATGGACCGGTTTTCCCGGTAATCCGTATTTGAC (site GATTGTACTGT)	0
TTCGAGCCATGGACCGGTTTTCCCGGTAATCCGTATTTGAC (site TTCGAGCCTGT)	0
AGCCACCCATGGACCGGTTTTCCCGGTAATCCGTATTTGTT (site TGCCACCCTAA)	0
TAGAGTACATGGACCGGTTTTCCCGGTAATCCGTATTTGCA (site TAGACTACTTG)	0.88
GAATGCCCATGGACCGGTTTTCCCGGTAATCCGTATTTGCA (site GAATGTCCTTG)	0
GGCCTCCCATGGACCGGTTTTCCCGGTAATCCGTATTTGTT (site GGCCTCCCTAA)	0.00625

Sequence	recombinant UMI read abundance (log10)
TCCCATTCATGGACCGGTTTTCCCGGTAATCCGTATTTGCC (site TCCCATTCTGG)	0
TGGACTACATGGACCGGTTTTCCCGGTAATCCGTATTTGGA (site TGGACTACTTC)	0.786
TAGCACGCATGGACCGGTTTTCCCGGTAATCCGTATTTGGG (site TAGCACGCTCC)	0.0358
TTACTAACATGGACCGGTTTTCCCGGTAATCCGTATTTGGA (site GTACTAACTTC)	0.288
GATCATACATGGACCGGTTTTCCCGGTAATCCGTATTTGCT (site GATCATACTAG)	1.82
CACGGCCCATGGACCGGTTTTCCCGGTAATCCGTATTTGCT (site CACGGCCCTAC)	0.0286
AACACTGCATGGACCGGTTTTCCCGGTAATCCGTATTTGAG (site AACACTGCTCT)	1.31
TATTTGGCATGGACCGGTTTTCCCGGTAATCCGTATTTGTA (site TATTTGGCTTA)	0.00725
TGGAAGTCATGGACCGGTTTTCCCGGTAATCCGTATTTGGC (site TGGAAGTCTGC)	2.31
CCATGGGCATGGACCGGTTTTCCCGGTAATCCGTATTTGAG (site CCATGGGCTCT)	0.633
CGGAAATCATGGACCGGTTTTCCCGGTAATCCGTATTTGTT (site CGGAAATCTAA)	2.29
ACAGTATCATGGACCGGTTTTCCCGGTAATCCGTATTTGCA (site ACACCATCTTG)	0.786
TCGTTAGCATGGACCGGTTTTCCCGGTAATCCGTATTTGTG (site TCGTTAGCTCA)	0.255
GTAGTCGCATGGACCGGTTTTCCCGGTAATCCGTATTTGCG (site GTAGTAGCTCG)	0.489
GATTATCCATGGACCGGTTTTCCCGGTAATCCGTATTTGCT (site GATAATCCTAG)	0
GGCAAATCATGGACCGGTTTTCCCGGTAATCCGTATTTGCT (site GGCAAATCTAG)	0
AAACGCACATGGACCGGTTTTCCCGGTAATCCGTATTTGGG (site AAACGCACTCC)	0.0145
TATTATGCATGGACCGGTTTTCCCGGTAATCCGTATTTGGA (site CATTATGCTTC)	0.525
TGTTAGGCATGGACCGGTTTTCCCGGTAATCCGTATTTGGT (site TGTTAGGCTAC)	0.273
ACTAGCACATGGACCGGTTTTCCCGGTAATCCGTATTTGAG (site ACTAGGACTCT)	0.0266
ACACAAACATGGACCGGTTTTCCCGGTAATCCGTATTTGTC (site ACACGAACTGA)	0
AATGTAACATGGACCGGTTTTCCCGGTAATCCGTATTTGCT (site AATGTAACTAA)	0.0161
CATCAGCCATGGACCGGTTTTCCCGGTAATCCGTATTTGAG (site CATCAGCCTCT)	0.441
TCCGATTCATGGACCGGTTTTCCCGGTAATCCGTATTTGCC (site TCCAATTCTGG)	0
TAGTTAGCATGGACCGGTTTTCCCGGTAATCCGTATTTGAA (site TAGCTAGCTTT)	0.407
